Data on 1 compound can be found in patent publication US7026135B2, “Biotin-peg-substrate for a lipase assay” (Amersham Biosciences UK Limited, priority 2000, dated 2006).

Common to all, as to format: biochemical
The target in experiment [1] is lipase. In words: lipase assay, 96-well SPA format, 'on bead'. To be noted: YSi beads, 5 nM lipase, room temperature, 60 minutes, read-out: IC50 inhibition of lipase activity. On the procedure: 96-well SPA format. Using an ‘on bead’ assay format, 180 nM lipase substrate (i.e. HSL substrate prepared by the method described in Example 1) was added to streptavidin coated yttrium silicate (YSi) beads (Amersham Pharmacia Biotech) at 5 mg/ml and 10% (v/v) Triton™ X-100 in the ratio of 1:3:2. Triton X-100 was added to prevent non-specific binding of the tritiated product to beads. Assays contained 20 μl substrate precoated SPA beads (6 nM lipase substrate, 50 μg beads, 0.67% (v/v) Triton X-100), 5 nM lipase and assay buffer (50 mM Hepes, pH 7.5, 1 mM dithioerythritol (DTE) and 0.001% (v/v) C13E12) in a volume of 100 μl. In ‘no enzyme’ controls, approximately 15000 SPA cpm were obtained. After incubation for 60 minutes at room temperature with agitation, assays were stopped by the addition of 100 μl 0.1M sodium citrate/citric acid, pH 4.0 and counted on a TopCount™ microplate scintillation counter (Packard Instruments Co., Meriden, Conn., USA).
Development of a lipase assay using a 96-well SPA assay format. Enzyme titrations were set up using ‘on’ and ‘off’ bead assay formats. In the ‘off’ bead format, the lipase substrate was not precoated onto SPA beads; instead the beads were added at the same time as the stop solution. […] It is thought that the binding of the substrate to the bead surface produced an artificial membrane environment necessary for optimal enzyme activity (FIG. 2). […]

For experiment [2], the target named is lipase. In words: lipase assay, 384-well LEADseeker format (YOx LEADseeker beads). To be noted: 30 nM lipase, room temperature, 60 minutes, read-out: IC50 inhibition of lipase activity. The procedure: (§1) 384-well SPA and LEADseeker formats. 180 nM lipase substrate was added to streptavidin coated YSi beads at 10 mg/ml and 10% (v/v) Triton™ X-100 in the ratio of 2:3:1. Assays contained […] substrate precoated streptavidin YSi SPA beads or streptavidin yttrium oxide (YOx) LEADseeker beads (Amersham Pharmacia Biotech) (24 nM lipase substrate, 50 μg beads, 0.67% (v/v) Triton X-100), 30 nM lipase and assay buffer in a volume of 25 μl. In ‘no enzyme’ controls, approximately 6000 SPA cpm and 600 IOD's (Integrated Optical Density) were obtained. After incubation for 60 minutes at room temperature with agitation, assays were stopped by the addition of 25 μl 0.1M sodium citrate/citric acid, pH 4.0 and counted on either on a TopCount microplate scintillation counter (Packard Instruments Co., Meriden, Conn., USA) or imaged on LEADseeker (Amersham Pharmacia Biotech).
(§2) Miniaturization of the lipase assay to 384-well format using SPA and LEADseeker. Using a reduced assay volume an enzyme titration was performed with YSi SPA beads and YOx LEADseeker beads (FIG. 5). Different profiles were obtained using the two assay formats and this may be a result of how the substrate is presented on the surface of the two bead types.
(§3) 30 nM lipase was used and assays were incubated at room temperature for 60 minutes.

The target in experiment [3] is lipase. In words: lipase assay, 384-well SPA format (YSi SPA beads). To be noted: 30 nM lipase, room temperature, 60 minutes, read-out: IC50 inhibition of lipase activity. The procedure: as §1, §2, §3

Broadly, the IC50 is the point on the concentration scale where inhibition reaches its midpoint. In the case of `CC[C@@H](C)[C@@H](O)[C@H](C)C(=O)[C@H](C)/C=C(\C)C[C@H](C)[C@@H]1OC(=O)[C@H]1CC` [Ebelactone B], the IC50 on lipase [1] was determined as 27.5 µM; on lipase [2], 18.2 µM; on lipase [3], 32.3 µM.
